Measurements: ChEMBL document CHEMBL5226304, “Fused-azepinones: Emerging scaffolds of medicinal importance” (Eur J Med Chem, 2021)
≈ marks a conversion by molar mass, not a printed value. Blank lines part the entries; values can stand above or below the molecule they belong to.

How the values were obtained:
Integrin alpha-V/beta-3 = Integrin alpha-V/beta-3 (Homo sapiens, UniProt P05106+P06756); test: Antagonist activity against human integrin alphaVbeta3 expressed in CHO-K1 cells measured after 4 hrs by Cell adhesion assay; assay type: cell-based
[1] = Inhibition of cAMP-dependent protein kinase (unknown origin); parameters: species or system Homo sapiens
[2] = Inhibition of MAPKK (unknown origin); parameters: species or system Homo sapiens
[3] = molecular target: Cyclin-dependent kinase 4/cyclin D1 (Homo sapiens, UniProt P11802); test: Inhibition of CDK4/Cyclin D1 (unknown origin); assay type: protein-complex assay
[4] = molecular target: RAF proto-oncogene serine/threonine-protein kinase (Homo sapiens, UniProt P04049); test: Inhibition of c-Raf (unknown origin)
[5] = Inhibition of cGMP-dependent protein kinase (unknown origin); parameters: species or system Homo sapiens
LAPC4 = test: Antiproliferative activity against human LAPC4 cells assessed as inhibition of proliferation measured after 96 hrs by alamerBlue assay; assay type: functional, cell-based
MOLM-13 = test: Antiproliferative activity against human MOLM-13 cells assessed as inhibition of proliferation measured after 96 hrs by alamerBlue assay; assay type: functional, cell-based
KB 3-1 = test: Cytotoxicity against human KB-3-1 cells by MTT assay; assay type: functional, cell-based
[6] = molecular target: Cyclin-dependent kinase 5/CDK5 activator 1 (Homo sapiens, UniProt Q00535); test: Inhibition of CDK5/p25 (unknown origin); assay type: protein-complex assay
[7] = molecular target: Cyclin-dependent kinase 1/cyclin B (Homo sapiens, UniProt P06493); test: Inhibition of CDK1/Cyclin B (unknown origin) in presence of gamma32P-ATP by scintillation counter analysis; assay type: protein-complex assay
Homo sapiens = species on record: Homo sapiens; test: Selectivity ratio of IC50 for Chk1 (unknown origin) to IC50 for (unknown origin)
THP-1 [8] = test: Antiinflammatory activity in human THP-1 cells assessed as inhibition of LPS-stimulated TNFalpha production; assay type: functional, cell-based
THP-1 [9] = test: Antiinflammatory activity in human THP-1 cells assessed as inhibition of LPS-stimulated IL2 production; assay type: functional, cell-based
[10] = molecular target: Serine/threonine-protein kinase Chk1 (Homo sapiens, UniProt O14757); test: Inhibition of Chk1 (unknown origin)
[11] = molecular target: Cyclin-dependent kinase 2/cyclin A (Homo sapiens, UniProt P24941); test: Inhibition of CDK2/Cyclin A (unknown origin); assay type: protein-complex assay
786-0 = test: Antitumor activity against human 786-0 cells; assay type: functional
[12] = molecular target: Glycogen synthase kinase-3 beta (Rattus norvegicus, UniProt P18266); test: Inhibition of recombinant recombinant rat GSK3beta using GS-1 peptide as substrate in presence of [gamma-32P]ATP measured after 30 mins incubation by scintillation counting analysis
[13] = molecular target: Mitogen-activated protein kinase kinase kinase 7 (Homo sapiens) (UniProt O43318); test: Inhibition of MAP3K7 kinase (unknown origin) at 10 uM relative to control
L5178Y = test: Cytotoxicity against mouse L5178Y cells by MTT assay; assay type: functional, cell-based

Sequence of Cyclin-dependent kinase 5/CDK5 activator 1 (Q00535 whole entry): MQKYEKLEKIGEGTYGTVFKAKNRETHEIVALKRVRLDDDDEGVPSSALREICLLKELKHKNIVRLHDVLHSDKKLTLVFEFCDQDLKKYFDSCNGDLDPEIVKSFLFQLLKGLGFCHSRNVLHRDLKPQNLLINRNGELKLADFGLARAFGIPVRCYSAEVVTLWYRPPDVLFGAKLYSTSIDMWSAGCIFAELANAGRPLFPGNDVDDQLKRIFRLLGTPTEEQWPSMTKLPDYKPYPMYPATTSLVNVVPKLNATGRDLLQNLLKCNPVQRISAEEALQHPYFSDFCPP
Sequence of Cyclin-dependent kinase 5/CDK5 activator 1 (Q15078 whole entry, further chain): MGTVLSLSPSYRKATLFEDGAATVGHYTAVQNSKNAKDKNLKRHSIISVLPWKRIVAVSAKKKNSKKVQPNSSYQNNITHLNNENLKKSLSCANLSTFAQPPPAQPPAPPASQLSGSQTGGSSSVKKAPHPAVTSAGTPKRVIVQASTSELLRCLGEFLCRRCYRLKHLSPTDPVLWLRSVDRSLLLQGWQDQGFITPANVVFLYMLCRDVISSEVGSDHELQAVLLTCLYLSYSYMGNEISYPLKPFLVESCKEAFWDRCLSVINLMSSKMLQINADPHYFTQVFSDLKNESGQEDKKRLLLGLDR
Sequence of Integrin alpha-V/beta-3 (P05106 27-788 limits assumed): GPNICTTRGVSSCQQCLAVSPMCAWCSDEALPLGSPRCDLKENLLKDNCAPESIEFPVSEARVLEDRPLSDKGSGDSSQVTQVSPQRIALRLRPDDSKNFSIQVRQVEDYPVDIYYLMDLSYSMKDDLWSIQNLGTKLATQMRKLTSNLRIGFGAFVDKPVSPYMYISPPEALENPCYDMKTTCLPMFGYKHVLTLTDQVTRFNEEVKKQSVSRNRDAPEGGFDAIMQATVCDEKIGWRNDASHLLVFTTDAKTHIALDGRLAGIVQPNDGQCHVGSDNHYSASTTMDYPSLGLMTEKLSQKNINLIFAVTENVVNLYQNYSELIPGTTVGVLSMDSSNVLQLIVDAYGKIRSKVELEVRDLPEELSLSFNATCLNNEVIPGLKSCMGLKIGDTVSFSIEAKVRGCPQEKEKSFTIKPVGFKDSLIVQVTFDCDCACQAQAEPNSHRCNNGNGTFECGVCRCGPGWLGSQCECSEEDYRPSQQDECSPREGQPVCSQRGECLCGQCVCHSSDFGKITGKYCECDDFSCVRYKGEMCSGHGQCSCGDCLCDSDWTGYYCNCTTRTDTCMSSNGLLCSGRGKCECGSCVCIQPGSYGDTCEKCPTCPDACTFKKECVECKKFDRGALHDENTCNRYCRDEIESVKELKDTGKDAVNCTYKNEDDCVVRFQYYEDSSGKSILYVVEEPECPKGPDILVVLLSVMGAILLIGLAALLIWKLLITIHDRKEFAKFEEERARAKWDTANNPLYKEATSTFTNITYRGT
Sequence of Integrin alpha-V/beta-3 (P06756 31-889 limits assumed): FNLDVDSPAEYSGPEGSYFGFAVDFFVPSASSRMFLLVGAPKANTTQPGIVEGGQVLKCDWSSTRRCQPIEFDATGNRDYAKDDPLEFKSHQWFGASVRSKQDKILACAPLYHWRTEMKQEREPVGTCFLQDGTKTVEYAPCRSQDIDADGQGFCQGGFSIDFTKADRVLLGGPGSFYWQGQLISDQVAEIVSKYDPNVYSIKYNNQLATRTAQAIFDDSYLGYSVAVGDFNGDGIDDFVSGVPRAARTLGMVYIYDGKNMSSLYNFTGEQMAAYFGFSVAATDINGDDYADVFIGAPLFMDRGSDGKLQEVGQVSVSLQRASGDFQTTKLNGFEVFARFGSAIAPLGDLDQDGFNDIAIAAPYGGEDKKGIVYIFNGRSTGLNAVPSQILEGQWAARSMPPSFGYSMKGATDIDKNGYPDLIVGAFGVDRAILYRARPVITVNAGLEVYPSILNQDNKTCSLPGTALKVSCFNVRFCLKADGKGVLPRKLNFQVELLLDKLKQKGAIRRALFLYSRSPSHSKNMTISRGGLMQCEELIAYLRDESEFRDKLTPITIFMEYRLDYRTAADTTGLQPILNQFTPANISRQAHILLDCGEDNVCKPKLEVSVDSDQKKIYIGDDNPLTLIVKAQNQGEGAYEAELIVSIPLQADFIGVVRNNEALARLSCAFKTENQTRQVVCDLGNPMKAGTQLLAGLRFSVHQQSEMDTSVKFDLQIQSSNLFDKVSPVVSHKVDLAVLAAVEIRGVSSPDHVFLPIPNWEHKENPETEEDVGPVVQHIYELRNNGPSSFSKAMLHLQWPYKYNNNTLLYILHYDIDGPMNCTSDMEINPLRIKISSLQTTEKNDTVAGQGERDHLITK
Sequence of Integrin alpha-V/beta-3 (P06756 891-1048 limits assumed): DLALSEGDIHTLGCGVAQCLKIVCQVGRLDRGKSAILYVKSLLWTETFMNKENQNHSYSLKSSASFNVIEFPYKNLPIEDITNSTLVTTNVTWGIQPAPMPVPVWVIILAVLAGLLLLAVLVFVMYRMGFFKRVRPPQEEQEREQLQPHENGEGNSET
Sequence of Cyclin-dependent kinase 4/cyclin D1 (P11802 whole entry): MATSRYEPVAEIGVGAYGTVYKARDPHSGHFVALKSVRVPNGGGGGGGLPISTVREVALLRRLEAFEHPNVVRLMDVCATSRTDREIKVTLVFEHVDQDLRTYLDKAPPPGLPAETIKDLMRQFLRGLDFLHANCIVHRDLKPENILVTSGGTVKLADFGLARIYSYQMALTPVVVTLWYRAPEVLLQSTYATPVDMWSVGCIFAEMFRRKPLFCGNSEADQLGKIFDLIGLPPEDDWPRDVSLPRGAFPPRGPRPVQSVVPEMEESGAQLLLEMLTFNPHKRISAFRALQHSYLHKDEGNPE
Sequence of Cyclin-dependent kinase 4/cyclin D1 (P24385 whole entry, further chain): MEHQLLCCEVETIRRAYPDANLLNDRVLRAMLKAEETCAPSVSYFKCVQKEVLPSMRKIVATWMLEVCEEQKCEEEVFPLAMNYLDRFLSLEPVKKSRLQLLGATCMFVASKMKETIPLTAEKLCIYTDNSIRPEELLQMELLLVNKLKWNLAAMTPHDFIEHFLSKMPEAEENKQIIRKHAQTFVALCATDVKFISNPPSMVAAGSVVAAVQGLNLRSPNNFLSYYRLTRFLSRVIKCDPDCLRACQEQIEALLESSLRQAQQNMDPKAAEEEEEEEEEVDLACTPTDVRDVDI
Sequence of RAF proto-oncogene serine/threonine-protein kinase (P04049 whole entry): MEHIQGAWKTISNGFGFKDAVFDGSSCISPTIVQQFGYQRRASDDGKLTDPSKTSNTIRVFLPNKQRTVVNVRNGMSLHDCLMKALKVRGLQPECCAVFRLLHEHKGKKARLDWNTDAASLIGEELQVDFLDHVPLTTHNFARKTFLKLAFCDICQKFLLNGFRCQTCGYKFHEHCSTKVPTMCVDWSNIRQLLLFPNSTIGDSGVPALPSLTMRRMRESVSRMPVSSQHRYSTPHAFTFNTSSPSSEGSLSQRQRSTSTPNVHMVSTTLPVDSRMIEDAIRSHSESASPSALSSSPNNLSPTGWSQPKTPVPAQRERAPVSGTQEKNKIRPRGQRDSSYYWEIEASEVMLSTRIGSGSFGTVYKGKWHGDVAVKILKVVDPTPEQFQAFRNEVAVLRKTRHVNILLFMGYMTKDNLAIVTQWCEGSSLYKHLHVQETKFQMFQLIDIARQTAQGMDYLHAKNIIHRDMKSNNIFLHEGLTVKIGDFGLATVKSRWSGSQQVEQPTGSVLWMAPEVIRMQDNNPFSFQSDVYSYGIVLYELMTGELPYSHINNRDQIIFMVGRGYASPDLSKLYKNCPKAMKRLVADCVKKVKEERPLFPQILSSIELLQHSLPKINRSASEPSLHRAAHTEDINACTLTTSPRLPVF
Sequence of Glycogen synthase kinase-3 beta (P18266 whole entry): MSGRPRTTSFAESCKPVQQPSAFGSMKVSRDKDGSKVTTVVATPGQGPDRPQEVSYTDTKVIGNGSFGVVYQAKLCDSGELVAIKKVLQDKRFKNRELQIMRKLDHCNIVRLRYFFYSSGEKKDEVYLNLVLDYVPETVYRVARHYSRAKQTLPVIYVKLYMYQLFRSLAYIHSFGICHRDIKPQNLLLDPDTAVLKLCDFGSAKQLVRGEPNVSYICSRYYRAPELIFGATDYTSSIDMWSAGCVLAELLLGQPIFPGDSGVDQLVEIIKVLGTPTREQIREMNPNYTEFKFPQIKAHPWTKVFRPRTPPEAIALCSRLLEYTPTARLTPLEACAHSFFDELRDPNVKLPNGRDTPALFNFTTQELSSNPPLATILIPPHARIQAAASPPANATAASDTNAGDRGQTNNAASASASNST
Sequence of Serine/threonine-protein kinase Chk1 (O14757 whole entry): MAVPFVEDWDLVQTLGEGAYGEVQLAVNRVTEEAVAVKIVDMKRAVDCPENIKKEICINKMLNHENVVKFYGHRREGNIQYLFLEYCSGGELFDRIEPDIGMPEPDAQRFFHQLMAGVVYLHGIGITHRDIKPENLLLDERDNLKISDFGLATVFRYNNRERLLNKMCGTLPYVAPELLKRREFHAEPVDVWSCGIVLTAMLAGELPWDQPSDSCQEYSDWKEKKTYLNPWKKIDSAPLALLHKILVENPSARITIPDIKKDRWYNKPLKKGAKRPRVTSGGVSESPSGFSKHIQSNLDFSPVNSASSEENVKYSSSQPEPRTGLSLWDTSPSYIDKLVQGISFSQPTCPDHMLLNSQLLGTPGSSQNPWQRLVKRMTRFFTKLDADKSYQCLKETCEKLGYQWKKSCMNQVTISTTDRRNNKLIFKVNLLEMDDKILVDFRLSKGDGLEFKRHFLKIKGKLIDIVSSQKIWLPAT

SMILES: O=C1Cc2c([nH]c3ccc(Br)cc23)-c2ccccc2N1 [KENPAULLONE]
IC50 [1]: > 1000 µM
IC50 [2]: > 100 µM
IC50 [3]: > 100 µM
IC50 [4]: 38 µM
IC50 [5]: > 1000 µM

SMILES: O=C1NCCCc2ccccc2-c2c1[nH]c1ccccc21
IC50 (KB 3-1): 8 µM

SMILES: CCNC1=NC(=O)/C(=C2\CCNC(=O)c3[nH]c(Br)c(Br)c32)N1
IC50 [6]: 9.12 µM
IC50 [7]: > 10 µM

SMILES: CC(=O)NC1=NC(=O)/C(=C2\CCNC(=O)c3[nH]c(Br)c(Br)c32)N1
IC50 [6]: 0.533 µM
IC50 [7]: 1.5 µM

SMILES: NC1=NC(=O)/C(=C2\CCNC(=O)c3[nH]c4ccccc4c32)N1
IC50 [6]: 0.177 µM
IC50 (THP-1 [8]): 8.2 µM
Ratio IC50 (Homo sapiens): 29
IC50 (THP-1 [9]): 3.5 µM
IC50 [7]: 0.8 µM

SMILES: O=C1Cc2c(-c3ccco3)cc(-c3ccccc3)nc2-c2ccccc2N1
GI50 (786-0): 5.5 µM

SMILES: NC1=NC(=O)/C(=C2\CCNC(=O)c3[nH]cc(Br)c32)N1
IC50 [6]: 0.079 µM
IC50 [7]: 1.5 µM

SMILES: NC1=NC(=O)/C(=C2\CCNC(=O)c3[nH]c4ccc(F)cc4c32)N1
IC50 [6]: 0.177 µM
IC50 [7]: 0.55 µM

SMILES: O=C1NCC/C(=N\Nc2cccnc2)c2c1[nH]c1ccc(F)cc21
IC50 [6]: 0.012 µM

SMILES: Nc1ncc2c(n1)CNC(=O)c1[nH]c(Br)c(Br)c1-2
EC50 (L5178Y): 9 µg/mL (≈ 24.1 µM)

SMILES: O=C1Cc2c([nH]c3ccc([N+](=O)[O-])cc23)-c2ccccc2N1 [ALSTERPAULLONE]
IC50 [1]: 7 µM
IC50 [2]: > 100 µM
IC50 [3]: > 10 µM
IC50 [4]: > 10 µM
IC50 [5]: > 100 µM

SMILES: NC1=NC(=O)/C(=C2\CCNC(=O)c3[nH]c4ccc(Br)cc4c32)N1
IC50 [6]: 0.213 µM
IC50 [7]: 1 µM

The next lines start with results.

IC50 (Integrin alpha-V/beta-3): 0.0005 µM
SMILES: O=C(O)CC1CCC(=O)N(CC(=O)NCc2ccc(Nc3nc4ccccc4[nH]3)cc2)c2ccccc21 (stereo not given)

IC50 (MOLM-13): 0.17 µM
SMILES: Cc1nnc2n1-c1ccccc1C(c1ccc(Cl)cc1)=C[C@@H]2CC(=O)Nc1ccc2c(c1)NC(=O)C2
IC50 (LAPC4): 0.08 µM

Ratio IC50 (Homo sapiens): 66
SMILES: NC1=NC(=O)/C(=C2\CCNC(=O)c3[nH]c(-c4ccccc4)cc32)N1

IC50 [10]: > 1 µM
Ratio IC50 (Homo sapiens): > 64
SMILES: CCCNC1=NC(=O)/C(=C2\CCNC(=O)c3[nH]c(-c4ccccc4)cc32)N1

IC50 [11]: 0.5 µM
IC50 [7]: 0.5 µM
SMILES: N#Cc1ccc2[nH]c3c(c2c1)CC(=O)Nc1cccnc1-3 [CAZPAULLONE]

GI50 (786-0): 1.7 µM
SMILES: O=C1Cc2c(-c3ccccc3)cc(-c3ccc(Cl)cc3)nc2-c2ccccc2N1

IC50 (Integrin alpha-V/beta-3): 0.00026 µM
SMILES: COc1ccc2c(c1)C(CC(=O)O)CCC(=O)N2CC(=O)NC[C@H]1CC[C@H](Nc2nc3ccccc3[nH]2)CC1 (stereo not given in full)

IC50 [12]: 0.04 µM
SMILES: NCCCCOc1ccc2c(c1)-c1[nH]c3ccc(Br)cc3c1CC(=O)N2

inhibition [13]: 78%
SMILES: CCOC(=O)c1[nH]cc2c1-c1[nH]c3ccccc3c1C(=O)NC2

IC50 [6]: 0.012 µM
SMILES: O=C1NCC/C(=N\Nc2cccnc2Cl)c2c1[nH]c1ccc(F)cc21

IC50 [12]: 0.022 µM
SMILES: O=C1Nc2ccccc2/C1=C1/Nc2ccccc2/C1=N\O

IC50 (MOLM-13): 0.12 µM
SMILES: CCOC(=O)C[C@H]1C=C(c2ccc(Cl)cc2)c2ccccc2-n2c(C)nnc21
IC50 (LAPC4): 0.08 µM
